Experimental data taken from paper PMC6934184, “Selective DNA-PKcs inhibition extends the therapeutic index of localized radiotherapy and chemotherapy” (The Journal of Clinical Investigation, 2019).

Target: T1, RPS6KB1 (p70S6K) (Homo sapiens, UniProt P23443)
T1 construct: purchased Thermo Fisher Scientific (Life Technologies) SelectScreen
Experiment: SelectScreen Z'LYTE
Assay type: biochemical
In short: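 SelectScreen broad panel; activity (Z'LYTE, Adapta) plus binding formats. ATP: Km app for CSF1R Z'LYTE; 10 for CAMK1 Adapta. Readout = % per kinase.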

T1 sequence (P23443 whole entry): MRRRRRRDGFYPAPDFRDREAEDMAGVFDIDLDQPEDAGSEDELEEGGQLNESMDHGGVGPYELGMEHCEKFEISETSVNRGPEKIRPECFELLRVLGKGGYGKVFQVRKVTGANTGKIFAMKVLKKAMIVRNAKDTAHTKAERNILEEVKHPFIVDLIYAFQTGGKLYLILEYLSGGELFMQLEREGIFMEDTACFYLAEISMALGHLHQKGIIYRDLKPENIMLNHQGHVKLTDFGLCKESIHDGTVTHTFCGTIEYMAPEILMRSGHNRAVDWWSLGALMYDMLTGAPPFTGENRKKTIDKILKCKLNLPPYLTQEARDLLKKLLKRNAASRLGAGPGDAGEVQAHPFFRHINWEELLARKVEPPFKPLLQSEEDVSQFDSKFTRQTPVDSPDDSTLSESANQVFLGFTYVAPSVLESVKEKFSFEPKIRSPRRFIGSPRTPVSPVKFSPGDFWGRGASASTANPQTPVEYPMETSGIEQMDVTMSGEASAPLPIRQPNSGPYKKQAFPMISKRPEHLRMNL

## CN(C(=O)CN1CCOCC1)c1ccc2sc3c(-c4cccc5c(=O)cc(N6CC7CCC(C6)O7)oc45)cccc3c2c1 [NU5455]
  inhibition at 1 µM: -7.8%
